Data reported in patent publication US10653653B2, “Salts of 5-aminolevulinic acid and derivatives” (priority 2016, dated 2020).

tested on: upper surface of the tongue; assay: Measurement of potential skin irritation/stimulation on tongue surface; type: in vivo; set-up: key: A: no irritation; B: irritation; C: strong irritation; D: very strong irritation; conditions: participant 1; 3 mg on upper surface of the tongue for 3-5 minutes
Protocol: The potential irritation/stimulation of test samples was carried out by applying 3 mg of each sample to the upper surface of the tongue for 3-5 minutes and then evaluated.

Row | Compound | irritation/stimulation on tongue surface
1 | 5-Aminolevulinic Acid 2,2,2-Trichloroacetate [5-ALA TCA] | B
2 | Hexyl 5-Aminolevulinate 2,2,2-Trichloroacetate [5-HAL TCA] | B
3 | Cl.NCC(=O)CCC(=O)O [5-ALA HCl, 5-aminolevulinic acid hydrochloride, reference compound] | D
4 | CCCCCCOC(=O)CCC(=O)CN.Cl [5-HAL HCl, Hexyl 5-aminolevulinate hydrochloride, reference compound] | B
5 | Methyl 5-Aminolevulinate 2,2,2-Trichloroacetate [5-MAL TCA] | B
6 | COC(=O)CCC(=O)CN.Cl [5-MAL HCl, methyl 5-aminolevulinate hydrochloride, reference compound] | C

same assay, conditions: participant 2; 3 mg on upper surface of the tongue for 3-5 minutes

Row | Compound | irritation/stimulation on tongue surface
7 | 5-Aminolevulinic Acid 2,2,2-Trichloroacetate [5-ALA TCA] | B
8 | Hexyl 5-Aminolevulinate 2,2,2-Trichloroacetate [5-HAL TCA] | B
9 | Cl.NCC(=O)CCC(=O)O [5-ALA HCl, 5-aminolevulinic acid hydrochloride, reference compound] | C
10 | CCCCCCOC(=O)CCC(=O)CN.Cl [5-HAL HCl, Hexyl 5-aminolevulinate hydrochloride, reference compound] | C
11 | Methyl 5-Aminolevulinate 2,2,2-Trichloroacetate [5-MAL TCA] | B
12 | COC(=O)CCC(=O)CN.Cl [5-MAL HCl, methyl 5-aminolevulinate hydrochloride, reference compound] | C

same assay, conditions: participant 3; 3 mg on upper surface of the tongue for 3-5 minutes

Row | Compound | irritation/stimulation on tongue surface
13 | 5-Aminolevulinic Acid 2,2,2-Trichloroacetate [5-ALA TCA] | B
14 | Hexyl 5-Aminolevulinate 2,2,2-Trichloroacetate [5-HAL TCA] | A
15 | Cl.NCC(=O)CCC(=O)O [5-ALA HCl, 5-aminolevulinic acid hydrochloride, reference compound] | D
16 | CCCCCCOC(=O)CCC(=O)CN.Cl [5-HAL HCl, Hexyl 5-aminolevulinate hydrochloride, reference compound] | C
17 | Methyl 5-Aminolevulinate 2,2,2-Trichloroacetate [5-MAL TCA] | B
18 | COC(=O)CCC(=O)CN.Cl [5-MAL HCl, methyl 5-aminolevulinate hydrochloride, reference compound] | C

same assay, conditions: participant 4; 3 mg on upper surface of the tongue for 3-5 minutes

Row | Compound | irritation/stimulation on tongue surface
19 | 5-Aminolevulinic Acid 2,2,2-Trichloroacetate [5-ALA TCA] | B
20 | Hexyl 5-Aminolevulinate 2,2,2-Trichloroacetate [5-HAL TCA] | B
21 | Cl.NCC(=O)CCC(=O)O [5-ALA HCl, 5-aminolevulinic acid hydrochloride, reference compound] | C
22 | CCCCCCOC(=O)CCC(=O)CN.Cl [5-HAL HCl, Hexyl 5-aminolevulinate hydrochloride, reference compound] | B
23 | Methyl 5-Aminolevulinate 2,2,2-Trichloroacetate [5-MAL TCA] | B
24 | COC(=O)CCC(=O)CN.Cl [5-MAL HCl, methyl 5-aminolevulinate hydrochloride, reference compound] | C

tested on: not listed separately; assay: Measurement of hydroscopicity (weight change method); type: physicochemical; conditions: sealed container, moisture of 70-85%, ambient temperature, 24 hours
Protocol: Hydroscopicity of salts from present disclosure was measured using a weight change method. The test samples were placed in a sealed container with moisture of 70-85% at ambient temperature for 24 hours and their weigh change was measured. All three hydrochloride salts of 5-ALA, 5-MAL and 5-HAL, and 5-ALA TCA were hygroscopic, their weight was increased by 25˜75%.

Row | Compound | appearance of sample after moisture exposure | weight change (weight increase)
25 | 5-Aminolevulinic Acid 2,2,2-Trichloroacetate [5-ALA TCA] | turned to a liquid due to deliquescence | –
26 | Hexyl 5-Aminolevulinate 2,2,2-Trichloroacetate [5-HAL TCA] | unchanged as crystalline solid | remained unchanged
27 | Cl.NCC(=O)CCC(=O)O [5-ALA HCl, 5-aminolevulinic acid hydrochloride, reference compound] | turned to a liquid due to deliquescence | –
28 | CCCCCCOC(=O)CCC(=O)CN.Cl [5-HAL HCl, Hexyl 5-aminolevulinate hydrochloride, reference compound] | turned to a liquid due to deliquescence | –
29 | Methyl 5-Aminolevulinate 2,2,2-Trichloroacetate [5-MAL TCA] | unchanged as crystalline solid | < 5%
30 | COC(=O)CCC(=O)CN.Cl [5-MAL HCl, methyl 5-aminolevulinate hydrochloride, reference compound] | turned to a liquid due to deliquescence | –

tested on: A549 cells; assay: Measurement of PpIX formation in A549 cells in vitro; type: cell-based, human; conditions: 0.5 mM, 4 hrs
Protocol: Test samples were dissolved with sterile saline to a concentration of 100 mM as stock solution. The stock solution was diluted to desired concentrations with culture medium or phosphate buffered solution (PBS).
A549 cells (ATCC), derived from human lung carcinoma, were grown in F12 medium (Gibco) containing 4.5 g/L glucose, 10% FCS, and penicillin/streptomycin, at 37° C. and 6% CO2 in a humid environment. For measurement purposes, the cells were sub-cultured in 48-well or 96-well dishes to give 5×10^4 cells/well 24 hours prior to incubation with test salts. The cells were washed twice with PBS and test solutions were added to the culture. After cells were incubated for 4, 8 or 24 hours, the medium was detached and the plates were rinsed twice with PBS, and PpIX natural fluorescence was measured at 360±40 nm excitation and 620±40 nm emission (CytoFluor Series 4000, Perspective Biosystems, MA, USA). The experiment was conducted in triplets.

Row | Compound | Activity (relative activity to induce porphyrin formation)
31 | Hexyl 5-Aminolevulinate 2,2,2-Trichloroacetate [5-HAL TCA] | 1.15 ± 0.05
32 | CCCCCCOC(=O)CCC(=O)CN.Cl [5-HAL HCl, Hexyl 5-aminolevulinate hydrochloride, reference compound] | 1.20 ± 0.15

same assay, conditions: 0.5 mM, 8 hrs

Row | Compound | Activity (relative activity to induce porphyrin formation)
33 | Hexyl 5-Aminolevulinate 2,2,2-Trichloroacetate [5-HAL TCA] | 1.57 ± 0.11
34 | CCCCCCOC(=O)CCC(=O)CN.Cl [5-HAL HCl, Hexyl 5-aminolevulinate hydrochloride, reference compound] | 1.57 ± 0.08

same assay, conditions: 0.5 mM, 24 hrs

Row | Compound | Activity (relative activity to induce porphyrin formation)
35 | Hexyl 5-Aminolevulinate 2,2,2-Trichloroacetate [5-HAL TCA] | 2.72 ± 0.10
36 | CCCCCCOC(=O)CCC(=O)CN.Cl [5-HAL HCl, Hexyl 5-aminolevulinate hydrochloride, reference compound] | 2.92 ± 0.30

same assay, conditions: 1 mM, 4 hrs

Row | Compound | Activity (relative activity to induce porphyrin formation)
37 | Hexyl 5-Aminolevulinate 2,2,2-Trichloroacetate [5-HAL TCA] | ~2
38 | CCCCCCOC(=O)CCC(=O)CN.Cl [5-HAL HCl, Hexyl 5-aminolevulinate hydrochloride, reference compound] | ~2

same assay, conditions: 1 mM, 8 hrs

Row | Compound | Activity (relative activity to induce porphyrin formation)
39 | Hexyl 5-Aminolevulinate 2,2,2-Trichloroacetate [5-HAL TCA] | ~4
40 | CCCCCCOC(=O)CCC(=O)CN.Cl [5-HAL HCl, Hexyl 5-aminolevulinate hydrochloride, reference compound] | ~4

same assay, conditions: 1 mM, 24 hrs

Row | Compound | Activity (relative activity to induce porphyrin formation)
41 | Hexyl 5-Aminolevulinate 2,2,2-Trichloroacetate [5-HAL TCA] | ~10
42 | CCCCCCOC(=O)CCC(=O)CN.Cl [5-HAL HCl, Hexyl 5-aminolevulinate hydrochloride, reference compound] | ~10

same assay, conditions: 10 mM, 4 hrs

Row | Compound | Activity (relative activity to induce porphyrin formation)
43 | 5-Aminolevulinic Acid 2,2,2-Trichloroacetate [5-ALA TCA] | 1.00 ± 0.02
44 | Cl.NCC(=O)CCC(=O)O [5-ALA HCl, 5-aminolevulinic acid hydrochloride, reference compound] | 1.00
45 | Methyl 5-Aminolevulinate 2,2,2-Trichloroacetate [5-MAL TCA] | 1.20 ± 0.04
46 | COC(=O)CCC(=O)CN.Cl [5-MAL HCl, methyl 5-aminolevulinate hydrochloride, reference compound] | 1.27 ± 0.04

same assay, conditions: 10 mM, 8 hrs

Row | Compound | Activity (relative activity to induce porphyrin formation)
47 | 5-Aminolevulinic Acid 2,2,2-Trichloroacetate [5-ALA TCA] | 1.30 ± 0.06
48 | Cl.NCC(=O)CCC(=O)O [5-ALA HCl, 5-aminolevulinic acid hydrochloride, reference compound] | 1.42 ± 0.04
49 | Methyl 5-Aminolevulinate 2,2,2-Trichloroacetate [5-MAL TCA] | 1.25 ± 0.02
50 | COC(=O)CCC(=O)CN.Cl [5-MAL HCl, methyl 5-aminolevulinate hydrochloride, reference compound] | 1.60 ± 0.12

same assay, conditions: 10 mM, 24 hrs

Row | Compound | Activity (relative activity to induce porphyrin formation)
51 | 5-Aminolevulinic Acid 2,2,2-Trichloroacetate [5-ALA TCA] | 2.50 ± 0.17
52 | Cl.NCC(=O)CCC(=O)O [5-ALA HCl, 5-aminolevulinic acid hydrochloride, reference compound] | 2.35 ± 0.19
53 | Methyl 5-Aminolevulinate 2,2,2-Trichloroacetate [5-MAL TCA] | 2.20 ± 0.16
54 | COC(=O)CCC(=O)CN.Cl [5-MAL HCl, methyl 5-aminolevulinate hydrochloride, reference compound] | 2.22 ± 0.16
